The text below walks through data of patent US20260355225A1 (priority 2022, published 2026).

The experiment relates to SARS-CoV-2. The experiment in a line: Antiviral assay, inhibition of virus-induced cytopathic effect (CPE) of SARS-CoV-2 by MTT assay (Example 1). Particulars: Severe acute respiratory syndrome coronavirus 2, Vero C1008, SARS-CoV-2, Vero E6 (CPE & MTT). For orientation: Protection from cytopathic effect is a common read-out in antiviral testing.

As for `O=C[C@H](O)[C@@H](O)[C@H](O)CO` [D-xylose], the IC50 (usually the concentration that gives 50% inhibition) (administration at the same time as the virus) was found to be 26.2 mM and the concentration for half-maximal inhibition (IC50) (preincubation with cells 6 h before infection) is 95.5 mM.
